How the values were obtained:
Assay type in all cases: cell-based, human
VEGF A = system: VEGF A
VEGF B = system: VEGF B
VEGF C = system: VEGF C

Molecule | VEGF A gene expression ratio treated/untreated (up) (VEGF A) | VEGF B gene expression ratio treated/untreated (up) (VEGF B) | VEGF C gene expression ratio treated/untreated (up) (VEGF C)
YGRKKRRQRRR-DLDLEMLA(Hyp)YIPMDDDFQL [ODD peptide] | up 3.2 x | up 1.4 x | up 4.4 x
[Cl-].[Cl-].[Co+2] [CoCl2] | up 3.4 x | up 1.4 x | up 3.0 x
